For orientation: kinetic solubility means solubility judged after dilution from a stock solution rather than from solid.

Converted amounts (≈) assume the structure as drawn.

51 compounds from PubChem BioAssay AID1996 can be followed below.

For the data set the following is noted: buffer; pH 7.4; 200.0 µM.
With `Fc1ccc(F)c(CNc2ncnc3cc(Cl)ccc23)c1`, the solubility (kinetic) was determined as 1.3 µg/mL (≈ 4.25 µM). With `Clc1cccc(Cl)c1CO/N=C/c1cccs1` the figure was more than 42.9 µg/mL; with `COc1ccc(N2CCN(CC(=O)c3ccccc3)CC2)cc1`, more than 46.6 µg/mL; with `O=C(NCC(c1ccco1)N1CCCCC1)c1ccc([N+](=O)[O-])s1` (stereo unspecified), more than 52.4 µg/mL. The same measure for `CC1CN(c2ccc(Cl)cc2)c2nc3c(c(=O)[nH]c(=O)n3C)n2C1` (stereo unspecified): 1.2 µg/mL (≈ 3.47 µM); for `Cc1ccc(NS(=O)(=O)c2ccc3[nH]c(=O)[nH]c3c2)c(C)c1`: 5 µg/mL (≈ 15.8 µM). Compound `N#Cc1ccc(NC(=O)c2cc(=O)c3ccccc3o2)cc1` had a kinetic solubility of 0.8 µg/mL (≈ 2.76 µM). On to `COc1cc2ccccc2cc1C(=O)Nc1ccc(C)cn1`, for which the solubility (kinetic) was less than 0.3 µg/mL. Consider `Cc1cccc(C)c1NC(=O)CNC(=O)c1ccc2c(c1)NC(=O)CS2`, for which the solubility (kinetic) was 41 µg/mL (≈ 111 µM).

The compound `Cc1ccc(C(=O)NCC(=O)Nc2ccc(F)c(F)c2F)cc1` registered a solubility (kinetic) of 2.3 µg/mL (≈ 7.14 µM). With `CC1CN(C(=O)COC(=O)c2cnc(Cl)c(Cl)c2)CC(C)O1` (stereo unspecified) the figure was more than 52.1 µg/mL. With `COCCOn1c(SCCOC)nc2ccccc2c1=O` the figure was more than 46.6 µg/mL; with `CC(=O)N1CCN(Cc2nc(-c3cccc(Cl)c3)no2)CC1`, more than 48.1 µg/mL. On to `OC(CCN1CCC2(CC1)OCCO2)C(F)(F)F` (stereo unspecified), for which the kinetic solubility is more than 40.4 µg/mL. The same measure for `Cc1ccccc1OCCNCC(C)O.O=C(O)C(=O)O` (stereo unspecified): 27 µg/mL; for `CCn1c([N+](=O)[O-])nc2c1c(=O)[nH]c(=O)n2C`: more than 35.9 µg/mL.

With `O=C1CC(Nc2cc(=O)[nH]c(=O)[nH]2)C(=O)N1c1ccccc1Cl` (stereo unspecified), the solubility (kinetic) is 39.4 µg/mL (≈ 118 µM).

`CC(C)(C)C(=O)Nc1sc(-c2ccccc2)cc1C(=O)O` came in with a kinetic solubility of more than 45.5 µg/mL. Compound `Fc1ccc2nc3c(nc2c1)CCCC3` showed a solubility (kinetic) of 13.3 µg/mL (≈ 65.8 µM). Turning to `Nc1cccc(Oc2ccc3c(c2)C(=O)NC3=O)c1`, the kinetic solubility amounted to 36.6 µg/mL (≈ 144 µM). For the compound `Cc1cc(C)c(NC(=O)COC(=O)C2CCCO2)c(C)c1` (stereo unspecified), the kinetic solubility was more than 43.7 µg/mL. `CCCS(=O)(=O)N1CCN=C1SCc1ccc(F)cc1` registered a solubility (kinetic) of more than 47.5 µg/mL.

With `COCc1cc(Sc2ccc(Cl)cc2)nc(C)n1`, the kinetic solubility came out at 40.1 µg/mL (≈ 143 µM). With `CCCNC(=O)COCc1cc(-c2ccc3c(c2)OCO3)on1` the figure was more than 47.7 µg/mL; with `CCOc1ccc(NC(=O)NC2CCCCCCC2)cc1`, 0.9 µg/mL (≈ 3.1 µM); with `CCc1ccc(N2CC(C(=O)NC3CC3)CC2=O)cc1` (stereo unspecified), more than 40.9 µg/mL. Compound `CCc1ccccc1NC(=O)NC1CCCCCCC1` gave a solubility (kinetic) of 0.5 µg/mL (≈ 1.82 µM). `O=C1CS/C(=C/C(=O)c2cccc(Cl)c2)N1`: the solubility (kinetic) is 10.5 µg/mL (≈ 41.4 µM). `CCCc1ccc2oc(C(=O)N(C)Cc3cnccn3)c(C)c2c1` returned a solubility (kinetic) of 26.8 µg/mL (≈ 82.9 µM). Compound `CC(=O)c1ccc(OC(C)C(=O)NCC2(N3CCOCC3)CCCCC2)cc1` (stereo unspecified) had a solubility (kinetic) of more than 58.3 µg/mL. The same measure for `Cc1ccccc1OCCC(=O)N1CCN(S(=O)(=O)c2ccccc2F)CC1`: 38.5 µg/mL (≈ 94.7 µM); for `O=C(COc1ccccc1)Nc1ccc2oc(=O)ccc2c1`: 9.8 µg/mL (≈ 33.2 µM); for `O=C1CC(/C=C/c2cccnc2)=Nc2ccccc2N1`: 24.4 µg/mL (≈ 92.7 µM). Turning to `CSc1ccc(Cl)c(C(=O)OCC(=O)N2CCNC2=O)c1`, the solubility (kinetic) is more than 49.3 µg/mL.

Compound `COc1ccccc1CNC(=O)c1cc2ccccc2oc1=O` yielded a solubility (kinetic) of less than 0.7 µg/mL. `COc1ccc(Br)cc1CN(C)C(=O)C1CC(=O)N(C2CCCC2)C1` (stereo unspecified) had a kinetic solubility of 54.2 µg/mL (≈ 132 µM). `CN(CC(=O)NCc1cccnc1)S(=O)(=O)c1ccccc1` displayed a kinetic solubility of more than 47.9 µg/mL.

The compound `O=C(Nc1cccc(O)c1)C1CC(c2cccc(Br)c2)=NO1` (stereo unspecified) yielded a solubility (kinetic) of 28 µg/mL (≈ 77.5 µM). Take `CCC(=O)Nc1sc(Cc2ccc3c(c2)OCO3)c(C)c1C(N)=O`: the kinetic solubility worked out at 5.2 µg/mL (≈ 15 µM). Turning to `O=C(COC(=O)c1ccc(S(=O)(=O)N2CCOCC2)cc1)NCc1ccccc1`, the kinetic solubility was 8.6 µg/mL (≈ 20.6 µM). Compound `O=C(Nc1cccc(S(=O)(=O)NCc2ccco2)c1)c1ccc(Cl)cc1` gave a solubility (kinetic) of 3 µg/mL (≈ 7.68 µM).

`CC(C(=O)Nc1ccccc1)C(=O)Nc1ccccc1` yielded a kinetic solubility of 21.8 µg/mL (≈ 81.2 µM). For `O=C(NCC1OCCc2ccccc21)C1COc2ccccc2O1` (stereo unspecified), the kinetic solubility was more than 48.8 µg/mL.

The compound `Cc1cccc(C(=O)NCCNC(=O)c2cnccn2)c1` yielded a solubility (kinetic) of 38.5 µg/mL (≈ 135 µM).

`CCCC(=O)N(Cc1cc(=O)[nH]c2ccccc12)c1ccccc1C` returned a kinetic solubility of 41.1 µg/mL (≈ 123 µM). In the case of `COC(=O)c1c(C)oc(C)c1S(=O)(=O)NCC1CC1`, the kinetic solubility was more than 43.1 µg/mL. In turn, `O=C(CSc1nc2ncc(Cl)cc2[nH]1)c1ccc2c(c1)OCO2` showed a solubility (kinetic) of 1.8 µg/mL (≈ 5.18 µM). The same measure for `CCc1sc(C(=O)Nc2ccccc2N2CCOCC2)cc1C`: 2.5 µg/mL (≈ 7.57 µM).

`O=C(Nc1cc([N+](=O)[O-])ccc1N1CCCC1)c1cccs1` showed a solubility (kinetic) of 4.1 µg/mL (≈ 12.9 µM). The compound `NS(=O)(=O)c1cccc(NC(=O)COC(=O)/C=C/c2nc3ccccc3s2)c1` came in with a kinetic solubility of 22.8 µg/mL (≈ 54.6 µM). Regarding `Cc1c(C(=O)Nc2cccc(S(=O)(=O)N3CCOCC3)c2)oc2ccc(Br)cc12`, the kinetic solubility came to 4.5 µg/mL (≈ 9.39 µM).
